{
  "source": "patent US20250057823A1",
  "about": "“COMPOSITION FOR IMPROVING CARDIAC FUNCTION” (Kyoto University, priority 2021, published 2025)",
  "key": {"[1]": {"tested_on": "beagle dog models of heart failure", "test": "Beagle dog models of rapid ventricular pacing-induced heart failure", "type": "in vivo", "method": "After induction of general anesthesia with thiopental sodium (20 mg/kg, i.v.: 0.5 g of Labonal injection, Nipro ES Pharma Corporation) in 10- to 12-month-old male beagle dogs (9.80-11.50 kg), a tracheal cannula was inserted into the airway, and artificial respiration was performed with an Acoma veterinary ventilator (PRO-45Va, Acoma Medical Corporation). Anesthesia was maintained by inhalation of a gas mixture (Air:O2=3:0.2) and 1.0 to 2.5% isoflurane (isoflurane inhalation solution “Pfizer”, Mylan Seiyaku Co., Ltd.) using an Acoma animal anesthesia machine (NS-5000A, Acoma Medical Industry Co., Ltd.) to maintain a constant depth of anesthesia. An incision was made in the right side of the neck of the animal, an animal internal cardiac pacemaker (SIP-501, Star Medical Corporation) was implanted subcutaneously, a retractable screw-in reed (Tendril STS J, St. Jude Medical, Inc.) was inserted through the right jugular vein under X-ray fluoroscopy (BV Pulsera, Koninklijke Philips N.V.), and the tip was implanted in the right ventricular wall. Pacing was started at 244-251 beats/min on postoperative day 1. Dogs with ejection fraction (EF) decreasing to 30-50% at 4 weeks after pacemaker activation were considered to have heart failure and subjected to analysis.\nEchocardiography was performed using a general-purpose ultrasound imaging system (Vivid S6, GE Medical Systems). The left ventricular end-diastolic diameter (LVIDd), left ventricular end-systolic diameter (LVIDs), ejection fraction (EF), and left ventricular internal diameter shortening (% FS) were measured in M-mode by placing a sector probe (10 MHz) on the chest.\nDogs were anesthetized intravenously with 14.5 to 22.3 mg/kg of secobarbital sodium (Injectable Ionar sodium (0.2), Nichi-Iko Co., Ltd.), followed by subcutaneous administration of 0.2 mg/kg of meloxicam (Metacam 0.5% injection, Boehringer Ingelheim Animal Health Japan Co.). A tracheal tube was inserted into the airway and connected to an Acoma animal ventilator (PRO-45Va, Acoma Medical Industry Co., Ltd.). The ventilator was set at a respiratory rate of 14-18 strokes/min and a tidal volume of 10-20 mL/kg/stroke, and respiration was controlled by an Acoma animal anesthesia machine (NS-5000A, Acoma Medical Industry Co., Ltd.) using a gas mixture (FiO2=0.3-1.0). The exhaled CO2 partial pressure was monitored using an exhaled carbon dioxide monitor (OLG-2800, Nihon Kohden Corporation). The animals were fixed in the dorsal position and the thighs and neck were shom. Anesthesia was maintained by continuous intravenous infusion of sodium secobarbital (5 mg/kg/hr) through the radial cutaneous vein using a Telfusion syringe pump (STC-523, Terumo Corporation). A Swan-Ganz catheter was inserted through the left femoral vein. A catheter for coronary angiography was inserted through the left femoral artery. A 5F sheath for arterial blood sampling was placed in the right femoral artery. A catheter for PV-loop analysis was inserted from the left internal carotid artery. An 8F occlusion balloon was placed from the right femoral vein for occlusion testing. In addition, KUS121 was administered from the left common jugular vein.\nBeagle dog models of heart failure were prepared by rapid ventricular pacing. Cardiac function was assessed by echocardiography before KUS121 administration and after continuous infusion at 40 mg/h. KUS121 increased LVEF, even if it was based on either of the Teichholz method and the modified-Simpson's method, and increased % FS (FIG. 18). Changes in heart rate, systolic blood pressure, diastolic blood pressure, left ventricular ejection fraction, mean pulmonary artery pressure, pulmonary capillary wedge pressure, left ventricular end-diastolic pressure, and adjusted dp/dt are shown in FIGS. 19 to 21. […]"}, "TAC mice": {"tested_on": "TAC mice", "test": "Acute effect on mouse models of heart failure (TAC, single injection 5 weeks later)", "type": "in vivo", "method": "Transverse aortic constriction (TAC) was performed as described previously [Date, et al. (2002) The antioxidant N-2-mercaptopropionyl glycine attenuates left ventricular hypertrophy in in vivo murine pressure-overload model. J Am Coll Cardiol 39: 907-912.]. Briefly, 8- to 10-week-old mice were anesthetized with anesthetic (0.3 mg/kg of medetomidine, 4.0 mg/kg of midazolam, and 5.0 mg/kg of butorphanol) administered intraperitoneally, and the proximal portion of the sternum was cut open to visualize the aorta. A 7-0 silk suture was placed around the aortic arch distal to the brachiocephalic artery. The suture was tightened firmly around a blunt 26-gauge needle placed adjacent to the aorta. The needle was then removed, and the chest and overlying skin were closed. Sham-operated mice underwent an identical surgical procedure without ligation of the aortic arch. At the end of the operation, 0.3 mg/kg of atipamezole was administered subcutaneously to reverse medetomidine. FIG. 1 is a schematic diagram of TAC.\nTo analyze the cardiac function, we used Vevo® 2100 (VISUALSONICS) at the indicated time points after TAC operation. Mice were kept under inhalation anesthesia with 2.5% isoflurane. LV function was measured in M mode of the parasternal short-axis view.\nMice were subjected to TAC at 8 weeks of age. Five weeks later (at 13 weeks of age), the mice were injected with KUS121 (50 mg/kg), and left ventricular ejection fraction (LVEF), left ventricular end-diastolic diameter (LVDd), and heart rate (HR) were assessed by echocardiography before and 10 minutes after the injection.\nMice were subjected to TAC at 8 weeks of age. Five weeks later (at 13 weeks of age), the mice were injected with KUS121 (50 mg/kg), and left ventricular pressure was measured by catheterization before and 10 minutes after the injection. The left ventricular pressure was 46.6 mmHg before KUS121 administration, and increased to 128.9 mmHg 10 minutes after the administration. In addition, Max/min dp/dt was changed from 1295.5/−621.4 mmHg/s to 3972.8/−1311.1 mmHg/s. […] Left ventricular ejection fraction was then measured over time and was 37% before KUS121 administration, increased to 67% 5 minutes after the administration, and returned to the baseline about 2 hours after the administration (FIG. 16).\nMice were subjected to TAC at 8 weeks of age. Five weeks later (at 13 weeks of age), the mice were injected with KUS187 (50 mg/kg), and left ventricular ejection fraction was assessed by echocardiography before and 10 minutes after the injection."}, "[2]": {"settings": "echocardiography, before vs after continuous infusion at 40 mg/h"}, "[3]": {"settings": "infusion per FIG. 17 protocol, cardiac catheterization"}, "[4]": {"settings": "TAC mice 5 weeks after TAC, 50 mg/kg, echocardiography before and 10 minutes after injection"}},
  "note": "Entries after “also recorded” stand apart in the source; their conditions may differ. Structures can show the parent of a compound that is named as a salt.",
  "data": [
    {"compound": "Cc1cc(F)ccc1-c1ccc(/N=N/c2cc(S(=O)(=O)O)c3ccccc3c2N)cn1", "note": "[KUS121, 4-amino-3-[6-(4-fluoro-2-methylphenyl)pyridine-3-ylazo]naphthalene-1-sulfonic acid sodium salt]", "values": [
      {"measurement": "liver and kidney functions", "setting": "[1]; blood samples collected during acute phase", "value": "remained normal"},
      {"measurement": "% FS (fractional shortening in left ventricle)", "setting": "[1]; [2]", "value": "increased"},
      {"measurement": "LVEF based on the Teichholz method", "setting": "[1]; [2]", "value": "increased"},
      {"measurement": "LVEF based on the modified-Simpson's method", "setting": "[1]; [2]", "value": "increased"},
      {"measurement": "heart rate", "setting": "[1]; infusion per FIG. 17 protocol", "value": "without affecting"},
      {"measurement": "left ventricular diastolic function", "setting": "[1]; infusion per FIG. 17 protocol", "value": "improved"},
      {"measurement": "left ventricular systolic function", "setting": "[1]; infusion per FIG. 17 protocol", "value": "improved"},
      {"measurement": "systolic blood pressure", "setting": "[1]; infusion per FIG. 17 protocol", "value": "without affecting"},
      {"measurement": "pulmonary artery pressure", "setting": "[1]; [3]", "value": "lowered"},
      {"measurement": "pulmonary capillary wedge pressure", "setting": "[1]; [3]", "value": "lowered"},
      {"measurement": "left ventricular ejection fraction", "setting": "TAC mice; 5 minutes after 50 mg/kg, 37% before administration", "value": 67, "unit": "%"},
      {"measurement": "heart rate (HR)", "setting": "TAC mice; TAC mice 5 weeks after TAC, 50 mg/kg, before and 10 minutes after injection, sodium salt, 50 mg/kg", "value": "without significantly affecting heart rate; also recorded: without affecting HR"},
      {"measurement": "left ventricular ejection fraction (LVEF)", "setting": "TAC mice; [4]", "value": "Recoveries"},
      {"measurement": "left ventricular end-diastolic diameter (LVDd)", "setting": "TAC mice; [4]", "value": "Recoveries"},
      {"measurement": "time after administration at which left ventricular ejection fraction returned to the baseline", "setting": "TAC mice; TAC mice, 50 mg/kg, LVEF measured over time", "value": "about 2 hours"},
      {"measurement": "left ventricular pressure", "setting": "TAC mice; catheterization, 10 minutes after 50 mg/kg, 46.6 mmHg before administration", "value": 128.9, "unit": "mmHg"},
      {"measurement": "Max dp/dt", "setting": "TAC mice; catheterization, 10 minutes after 50 mg/kg, 1295.5 mmHg/s before administration", "value": 3972.8, "unit": "mmHg/s"},
      {"measurement": "min dp/dt", "setting": "TAC mice; catheterization, 10 minutes after 50 mg/kg, −621.4 mmHg/s before administration", "value": "−1311.1", "unit": "mmHg/s"}
    ]}
  ]
}
